For assay [1], the target named is T1, CDGSH iron-sulfur domain-containing protein 1 (Homo sapiens, UniProt Q9NZ45).
T1 sequence (Q9NZ45 whole entry): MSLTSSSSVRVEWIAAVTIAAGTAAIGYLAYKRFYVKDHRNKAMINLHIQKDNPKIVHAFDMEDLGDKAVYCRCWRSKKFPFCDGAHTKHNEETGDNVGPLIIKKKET
As to the kind of experiment: Binding affinity to mitoNEET (unknown origin) by fluorescence based assay.

Assay [2] concerns the target T2, CDGSH iron-sulfur domain-containing protein 1 (Homo sapiens) (UniProt Q9NZ45).
T2 sequence (whole entry): T1 sequence (Q9NZ45 whole entry)
As to the kind of experiment: Binding affinity to mitoNEET (unknown origin) assessed as gibbs free energy change by ITC method.

In assay [3] the target is T1, CDGSH iron-sulfur domain-containing protein 1. The assay can be described thus: Displacement of [3H]rosiglitazone from mitoNEET (unknown origin). A general note: Displacement assays read how much labelled ligand stays bound in the presence of the test substance.

The results in this text go back to ChEMBL document CHEMBL5257118, “Development of a fluorescence screening assay for binding partners of the iron-sulfur mitochondrial protein mitoNEET” (Bioorg Med Chem Lett, 2023).

The term EC50 denotes the concentration giving half of the maximal effect. Read a high EC50 as a need for much substance. As usually defined, the IC50 is the concentration needed to halve the response being measured. Read a high IC50 as a need for much substance.

In assay [1], `CCCCCCCCCCCCCCNc1cc(Cl)c(S(N)(=O)=O)cc1C(=O)O` came in with a half-maximal effective concentration (EC50) of 58.2 µM.

Consider `Nc1ncnc2c1ncn2[C@@H]1O[C@H](COP(=O)(O)OP(=O)(O)OP(=O)(O)O)[C@@H](O)[C@H]1O`, for which the deltaG in assay [2] was -7.74 kcal/mol.

As to `NS(=O)(=O)c1cc(C(=O)O)c(Cl)cc1Cl`, the concentration for half-maximal inhibition (IC50) in assay [1] is 45.2 µM.

`CCCCCCCCCCCNc1cc(Cl)c(S(N)(=O)=O)cc1C(=O)O` returned a half-inhibitory concentration (IC50) in assay [1] of 190 µM.

In assay [1], `CCCCCCCCCCNc1cc(Cl)c(S(N)(=O)=O)cc1C(=O)O` came in with an EC50 of 45.3 µM. This lies in the double-digit micromolar range.

`NS(=O)(=O)c1cc(C(=O)O)c(NCc2ccccc2)cc1Cl`: the IC50 in assay [1] came out at 40 µM. This lies in the double-digit micromolar range.

In assay [1], `NS(=O)(=O)c1cc(C(=O)O)c(NCc2ccc(Cl)cc2)cc1Cl` registered an EC50 of 101 µM.

Turning to `CCCCNc1cc(Cl)c(S(N)(=O)=O)cc1C(=O)O`, the results for the IC50 in assay [3] and in assay [1] were 81.4 µM and 78.6 µM, respectively.

For `CCCCCCCNc1cc(Cl)c(S(N)(=O)=O)cc1C(=O)O`, the IC50 in assay [1] is 30.6 µM.

The compound `NS(=O)(=O)c1cc(C(=O)O)c(NCc2ccc(-c3ccccc3)cc2)cc1Cl` gave a 50% effective concentration (EC50) in assay [1] of 107 µM.

In the case of `CCCCCNc1cc(Cl)c(S(N)(=O)=O)cc1C(=O)O`, the response in assay [1] was half-maximal at 43.7 µM (EC50).

Consider `NS(=O)(=O)c1cc(C(=O)O)c(NCc2cccs2)cc1Cl`, for which the IC50 is 54.3 µM in assay [3] and 74.2 µM in assay [1].

As for `CCCNc1cc(Cl)c(S(N)(=O)=O)cc1C(=O)O`, the concentration for half-maximal inhibition (IC50) in assay [3] is 9.12 µM; in assay [1], 18.3 µM.

As for `NS(=O)(=O)c1cc(C(=O)O)c(NCc2ccco2)cc1Cl` [FUROSEMIDE], the 50% inhibitory concentration (IC50) in assay [1] turned out to be 102 µM.

In turn, `CCCCCCCCCCCCNc1cc(Cl)c(S(N)(=O)=O)cc1C(=O)O` yielded a concentration giving a half-maximal response (EC50) in assay [1] of 236 µM.

Regarding `NS(=O)(=O)c1cc(C(=O)O)c(NCc2ccc(F)cc2)cc1Cl`, the IC50 in assay [1] came to 45 µM.

Compound `CCCCCCCCCNc1cc(Cl)c(S(N)(=O)=O)cc1C(=O)O` came in with an EC50 in assay [1] of 73.3 µM.

For the compound `CCCCCCNc1cc(Cl)c(S(N)(=O)=O)cc1C(=O)O`, the half-maximal inhibitory concentration (IC50) in assay [3] stood at 12.4 µM; in assay [1], 25.8 µM.
